# Measurements: patent US4416884A, “Piperazinylbenzoheterocyclic compounds” (Otsuka Pharmaceutical Co., Ltd., priority 1978, dated 1983)
# Counter-ions that a name gives are not always drawn. Like-named read-outs stand apart in the source and are kept apart here.
# What was measured:
# Experiment in all cases: antimicrobial activity, serial dilution method on agar plate
# Type in all cases: cell-based
# [1] = test system: Salmonella typhi 0-901 (NCTC 8393); details: Salmonella enterica
# Method: (§1) The antimicrobial activity of the following test compounds on various test organisms listed below was determined by the serial dilution method on agar plate (Heart Infusion agar produced by Difco Co.) (see CHEMOTHERAPY 22, pp. 1126-1128 (1974)), and the minimum inhibitory concentrations (mcg/ml) obtained are shown in Table 1 below.
# (§2) A sample of each test organism was prepared so that the population of the organism was 1×10^8 cells/ml (O.D. 660 mμ=0.07 to 0.16) and 1×10^6 cells/ml (which was obtained by diluting the above 1×10^8 cells/ml preparation).
# [2] = test system: Serattia marcescens IFO 12648
# Method: as §1, §2
# [3] = test system: Pseudomonas aeruginosa NCTC 10490
# Method: as §1, §2
# [4] = test system: Pseudomonas aeruginosa ATCC 10145
# Method: as §1, §2
# Klebsiella pneumoniae = test system: Klebsiella pneumoniae
# Method: as §1, §2
# [5] = test system: Escherichia Coli NIHJ JC-2 (IFO 12734); details: Escherichia coli, read-out: Minimum Inhibitory Concentration
# Method: as §1, §2
# [6] = test system: Pseudomonas aeruginosa E-2
# Method: as §1, §2
# [7] = test system: Staphylococcus aureus FDA 209 P
# Method: as §1, §2
# Shigella Sonnei EW 33 = details: inoculum 1 × 10^8 cells/ml, read-out: Minimum Inhibitory Concentration
# Method: as §1, §2
# Proteus rettgeri NIH 96 = details: Providencia rettgeri
# Method: as §1, §2
# [8] = read-out: Minimum Inhibitory Concentration, inoculum 1 × 10^8 cells/ml
# [9] = inoculum 1 × 10^8 cells/ml, read-out: Minimum Inhibitory Concentration
# [10] = NCTC10490, inoculum 1 × 10^8 cells/ml, read-out: Minimum Inhibitory Concentration
# [11] = ATCC10145, inoculum 1 × 10^8 cells/ml, read-out: Minimum Inhibitory Concentration
# [12] = E2, inoculum 1 × 10^8 cells/ml, read-out: Minimum Inhibitory Concentration
# [13] = FDA209, inoculum 1 × 10^8 cells/ml, read-out: Minimum Inhibitory Concentration
# [14] = NIH96, inoculum 1 × 10^8 cells/ml, read-out: Minimum Inhibitory Concentration
SMILES,"MIC [1, 8] [µg/mL]","MIC [2, 9] [µg/mL]","MIC [3, 10] [µg/mL]","MIC [4, 11] [µg/mL]",MIC (Klebsiella pneumoniae; [9]) [µg/mL],MIC ([5]; inoculum 1 × 10^8 cells/ml) [µg/mL],"MIC [6, 12] [µg/mL]","MIC [7, 13] [µg/mL]",MIC (Shigella Sonnei EW 33) [µg/mL],MIC (Proteus rettgeri NIH 96; [14]) [µg/mL],"MIC [1, 9] [µg/mL]","MIC [2, 8] [µg/mL]","MIC ([3]; NCTC10490, read-out: Minimum Inhibitory Concentration, inoculum 1 × 10^8 cells/ml) [µg/mL]","MIC ([4]; ATCC10145, read-out: Minimum Inhibitory Concentration, inoculum 1 × 10^8 cells/ml) [µg/mL]",MIC (Klebsiella pneumoniae; [8]) [µg/mL],MIC [5] [µg/mL],"MIC ([6]; E2, read-out: Minimum Inhibitory Concentration, inoculum 1 × 10^8 cells/ml) [µg/mL]","MIC ([7]; FDA209, read-out: Minimum Inhibitory Concentration, inoculum 1 × 10^8 cells/ml) [µg/mL]","MIC (Proteus rettgeri NIH 96; NIH96, read-out: Minimum Inhibitory Concentration, inoculum 1 × 10^8 cells/ml) [µg/mL]"
"CN1CCN(c2ccc3c(=O)c(C(=O)O)cn4c3c2CCC4)CC1 [Compound L, 8-(4-Methyl-1-piperazinyl)-6,7-dihydro-1-oxo-1H,5H--benzo[ij]quinolizine-2-carboxylic acid]",3.1,6.3,50,50,6.3,1.6,50,6.3,3.1,3.1,–,–,–,–,–,–,–,–,–
"O=CN1CCN(c2ccc3c(=O)c(C(=O)O)cn4c3c2CCC4)CC1 [Compound M, 8-(4-Formyl-1-piperazinyl)-6,7-dihydro-1-oxo-1H,5H--benzo[ij]quinolizine-2-carboxylic acid]",0.8,3.1,12.5,25,3.1,1.6,25,3.1,1.6,1.6,–,–,–,–,–,–,–,–,–
"O=C(O)c1cn2c3c(c(N4CCN(C(=O)c5ccccc5)CC4)ccc3c1=O)CCC2 [Compound N, 8-(4-Benzoyl-1-piperazinyl)-6,7-dihydro-1-oxo-1H,5H--benzo[ij]quinolizine-2-carboxylic acid]",1.6,12.5,25,50,6.3,6.3,100,3.1,3.1,6.3,–,–,–,–,–,–,–,–,–
"CS(=O)(=O)N1CCN(c2ccc3c(=O)c(C(=O)O)cn4c3c2CCC4)CC1 [Compound O, 8-(4-Methanesulfonyl-1-piperazinyl)-6,7-dihydro-1-oxo-1H,5H--benzo[ij]quinolizine-2-carboxylic acid]",1.6,12.5,25,100,6.3,6.3,100,3.1,6.3,6.3,–,–,–,–,–,–,–,–,–
"O=C(O)c1cn2c3c(c(N4CCNCC4)c(Cl)cc3c1=O)CCC2 [Compound P, 9-Chloro-8-(1-piperazinyl)-6,7-dihydro-1-oxo-1H,5H--benzo[ij]quinolizine-2-carboxylic acid hydrochloride]",–,–,–,–,–,–,–,–,1.6,–,0.8,1.6,6.3,6.3,0.8,1.6,6.3,6.3,0.4
